Data from patent publication US6939946B2, “Ring modified cyclic peptide analogs” (Eli Lilly and Company, priority 1998, dated 2005).
Numbered stars: 1 amine (or outer) side, 2 acyl side, 3 side chain; on linkers, the order of the positions; unused ones are H or OH. Bridge positions count the residues as written; N and C are the ends. Square brackets hold non-standard residues; d marks the D form. Peptide text beside a SMILES is read from it. * marks the point of attachment. ξ: configuration not given here. pTerphenylCO(4''-OnC5H11) = CCCCCOc1ccc(-c2ccc(-c3ccc(C(=O)*)cc3)cc2)cc1; Orn(4R-OH,5R-OH) = O=C([C@H](C[C@@H](O)[C@@H](O)N[*:3])N[*:1])[*:2]; Pro(3S-OH,4S-Me) = C[C@H]1CN[C@H](C(=O)O)[C@H]1O; hTyr(3R-OH) = N[C@H](C(=O)O)[C@H](O)Cc1ccc(O)cc1; Hyp = O=C(O)[C@@H]1C[C@@H](O)CN1; Thr(3ξ) = CC(O)[C@H](N)C(=O)O

Experiments:
[1] = the molecule shown is the open-chain precursor; other bond; 21-membered ring; SnCl2/NaHCO3; CH2Cl2; 2.0 mM
Cryptococcus neoformans = details: in vitro
C. albicans = details: in vitro
A. Fumigatus [2] = details: murine model of organ recovery, cited from earlier work
Histoplasma capsulatum = details: in vitro
C. parapsilosis = details: in vitro
A. fumigatus [3] = details: in vitro
Pneumocystis carinii = details: cited from earlier work

Row | Compound | ring closure, crude yield [1] [%] | Minimal Inhibitory Concentration MIC Cryptococcus neoformans (Cryptococcus neoformans) [µg/mL] | Minimal Inhibitory Concentration MIC C. albicans (C. albicans) [µg/mL] | number of A. Fumigatus recovered from the kidneys (A. Fumigatus [2]; administered intraperitoneally) | effectiveness compared with amphotericin B on a mg/kg basis (A. Fumigatus [2]; both administered intraperitoneally) | Minimal Inhibitory Concentration MIC Histoplasma capsulatum (Histoplasma capsulatum) [µg/mL] | Minimal Inhibitory Concentration MIC C. parapsilosis (C. parapsilosis) [µg/mL] | Minimal Inhibitory Concentration MIC A. fumigatus (A. fumigatus [3]) [µg/mL] | reduction of the number of cysts in the lungs (Pneumocystis carinii; heavily infected, immunosuppressed rats, orally 5 mg/kg once daily for 4 days) | reduction in all life cycle forms (Pneumocystis carinii; prophylactic oral administration of 1 mg/kg twice daily for 4 weeks) [%]
1 | Boc-Asp-semialdehyde(dimethyl acetal)-Thr(TBS)-Hyp(TBS)-hTyr(3-OTBS,4'-OTBS)-Thr(TBS)-Pro(3-OTBS,4-Me)-NHNH2? | 100 | – | – | – | – | – | – | – | – | –
2 | CCCCCOc1ccc(-c2ccc(-c3ccc(C(=O)N[C@H]4C[C@@H](O)[C@@H](O)NC(=O)[C@@H]5[C@@H](O)[C@@H](C)CN5C(=O)[C@H](C(C)O)NC(=O)[C@H]([C@H](O)Cc5ccc(O)cc5)NC(=O)[C@@H]5C[C@@H](O)CN5C(=O)[C@H](C(C)O)NC4=O)cc3)cc2)cc1 (stereo partly drawn) [Compound C1, reference compound] ({pTerphenylCO(4''-OnC5H11)}-[Orn(4R-OH,5R-OH)][Thr(3ξ)][Hyp][hTyr(3R-OH)][Thr(3ξ)][Pro(3S-OH,4S-Me)]; lactam 1-C) | – | >20 | 0.01 | significantly reduced | as effective as amphotericin B | 0.01 | 0.156 | 0.02 | more than 99% | > 90
